The record followed here is US9834559B2, “4-Amino-6-phenyl-5,6-dihydroimidazo[1,5-a]pyrazin-3(2H)-one derivatives as inhibitors of beta-secretase (BACE)” (Janssen Pharmaceutica NV, priority 2013, dated 2017).

In assay [1] the target is recombinant BACE1 protein (Homo sapiens, UniProt P56817). As to the kind of experiment: BACE1 biochemical FRET based assay. Conditions: BACE1 0.04 μg/ml, 20 μM substrate, pH 5.0, 450 min; read-out: Biochemical FRET based assay pIC50 (converted). An excerpt:
(§1) This assay is a Fluorescence Resonance Energy Transfer Assay (FRET) based assay. The substrate for this assay is an APP derived 13 amino acids peptide that contains the ‘Swedish’ Lys-Met/Asn-Leu mutation of the amyloid precursor protein (APP) beta-secretase cleavage site. This substrate also contains two fluorophores: (7-methoxycoumarin-4-yl) acetic acid (Mca) is a fluorescent donor with excitation wavelength at 320 nm and emission at 405 nm and 2,4-Dinitrophenyl (Dnp) is a proprietary quencher acceptor. […] Upon cleavage by BACE1, the fluorophore Mca is separated from the quenching group Dnp, restoring the full fluorescence yield of the donor. The increase in fluorescence is linearly related to the rate of proteolysis.
Briefly in a 384-well format recombinant BACE1 protein in a final concentration of 0.04 μg/ml is incubated for 450 minutes at room temperature with 20 μM substrate in incubation buffer (50 mM Citrate buffer pH 5.0, 0.05% PEG) in the presence of compound or DMSO. Next the amount of proteolysis is directly measured by fluorescence measurement (excitation at 320 nm and emission at 405 nm) at different incubation times (0, 30, 60, 90, 120 and 450 min). For every experiment a time curve (every 30 min between 0 min and 120 min) is used to determine the time where we find the lowest basal signal of the high control. The signal at this time (Tx) is used to subtract from the signal at 450 min. Results are expressed in RFU, as difference between T450 and Tx.
(§2) A best-fit curve is fitted by a minimum sum of squares method to the plot of % Controlmin versus compound concentration. From this an IC50 value (inhibitory concentration causing 50% inhibition of activity) can be obtained. • LC=Median of the low control values • =Low control: Reaction without enzyme • HC=Median of the High control values • =High Control: Reaction with enzyme • % Effect=100−[(sample−LC)/(HC−LC)*100] • % Control=(sample/HC)*100 • % Controlmin=(sample−LC)/(HC−LC)*100

Assay [2] concerns Abeta total produced and secreted by human neuroblastoma SKNBE2 cells expressing hAPP695. As to the kind of experiment: Cellular αLisa assay in SKNBE2 cells, Abeta total. The class given is cell-based. Conditions: 18 hours incubation, read-out: Cellular αLisa assay in SKNBE2 cells Abetatotal pIC50 (converted). On the procedure:
In two αLisa assays the levels of Abeta total and Abeta 1-42 produced and secreted into the medium of human neuroblastoma SKNBE2 cells are quantified. The assay is based on the human neuroblastoma SKNBE2 expressing the wild type Amyloid Precursor Protein (hAPP695). The compounds are diluted and added to these cells, incubated for 18 hours and then measurements of Abeta 1-42 and Abeta total are taken. Abeta total and Abeta 1-42 are measured by sandwich αLisa. αLisa is a sandwich assay using biotinylated antibody AbN/25 attached to streptavidin coated beads and antibody Ab4G8 or cAb42/26 conjugated acceptor beads for the detection of Abeta total and Abeta 1-42 respectively. In the presence of Abeta total or Abeta 1-42, the beads come into close proximity. The excitation of the donor beads provokes the release of singlet oxygen molecules that trigger a cascade of energy transfer in the acceptor beads, resulting in light emission. Light emission is measured after 1 hour incubation (excitation at […] and emission at 615 nm).
A best-fit curve is fitted by a minimum sum of squares method to the plot of % Controlmin versus compound concentration. From this an IC50 value (inhibitory concentration causing 50% inhibition of activity) can be obtained. • LC=Median of the low control values • =Low control: cells preincubated without compound, without biotinylated Ab in the αLisa • HC=Median of the High control values • =High Control: cells preincubated without compound • % Effect=100−[(sample−LC)/(HC−LC)*100] • % Control=(sample/HC)*100 • % Controlmin=(sample−LC)/(HC−LC)*100

Assay [3] has as its target T1, recombinant BACE2 protein (Homo sapiens, UniProt Q9Y5Z0).
T1 sequence (Q9Y5Z0 63-518): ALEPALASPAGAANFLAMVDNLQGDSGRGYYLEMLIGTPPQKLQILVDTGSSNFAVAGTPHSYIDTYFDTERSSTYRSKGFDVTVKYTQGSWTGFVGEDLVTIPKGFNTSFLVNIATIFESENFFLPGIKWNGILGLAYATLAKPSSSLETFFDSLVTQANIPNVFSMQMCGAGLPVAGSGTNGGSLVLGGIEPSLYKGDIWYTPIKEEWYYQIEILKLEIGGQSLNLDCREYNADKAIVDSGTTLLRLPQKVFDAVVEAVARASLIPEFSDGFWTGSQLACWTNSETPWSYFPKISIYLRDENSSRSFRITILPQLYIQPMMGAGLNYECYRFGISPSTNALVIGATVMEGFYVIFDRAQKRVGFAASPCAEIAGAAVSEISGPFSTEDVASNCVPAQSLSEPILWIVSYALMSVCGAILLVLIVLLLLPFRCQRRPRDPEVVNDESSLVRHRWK
As to the kind of experiment: BACE2 biochemical FRET based assay. Conditions: BACE2 0.4 μg/ml, 10 μM substrate, pH 5.0, 450 min; read-out: BACE2 Biochemical FRET based assay pIC50 (converted).
Description: as §1, with “assay” for “assay is an APP derived 13 amino acids peptide that”, “the beta-secretase,” for “BACE1,”
Briefly in a 384-well format recombinant BACE2 protein in a final concentration of 0.4 μg/ml is incubated for 450 minutes at room temperature with 10 μM substrate in incubation buffer (50 mM Citrate buffer pH 5.0, 0.05% PEG, no DMSO) in the absence or presence of compound. Next the amount of proteolysis is directly measured by fluorescence measurement at T=0 and T=450 (excitation at 320 nm and emission at 405 nm). Results are expressed in RFU (Relative Fluorescence Units), as difference between T450 and T0.
as §2

recombinant BACE1 protein, sequence (P56817 46-501): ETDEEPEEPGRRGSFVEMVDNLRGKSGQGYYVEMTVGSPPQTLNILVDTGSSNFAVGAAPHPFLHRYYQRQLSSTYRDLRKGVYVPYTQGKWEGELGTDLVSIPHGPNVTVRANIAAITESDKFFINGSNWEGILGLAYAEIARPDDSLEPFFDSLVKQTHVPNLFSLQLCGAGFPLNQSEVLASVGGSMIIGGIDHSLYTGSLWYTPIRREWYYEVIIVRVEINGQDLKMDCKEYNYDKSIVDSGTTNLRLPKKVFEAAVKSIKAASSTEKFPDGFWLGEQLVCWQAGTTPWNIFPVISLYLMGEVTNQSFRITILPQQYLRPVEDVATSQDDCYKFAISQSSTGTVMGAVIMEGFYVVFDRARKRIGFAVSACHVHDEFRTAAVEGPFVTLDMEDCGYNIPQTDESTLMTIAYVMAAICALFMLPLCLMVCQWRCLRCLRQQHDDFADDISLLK

As to `Cn1cc2n(c1=O)C[C@@](C)(c1cc(NC(=O)c3ccc(C#N)cn3)ccc1F)N=C2N` [Compound 1, N-{3-[(6R)-8-Amino-2,6-dimethyl-3-oxo-2,3,5,6-tetrahydroimidazo[1,5-a]pyrazin-6-yl]-4-fluorophenyl}-5-cyanopyridine-2-carboxamide], the figures for the IC50 in assay [1], in assay [2] and in assay [3] were 2.95 nM, 11.5 nM and 19.5 nM, respectively.
For `Cc1nc(C(=O)Nc2ccc(F)c([C@]3(C)Cn4c(cn(C)c4=O)C(N)=N3)c2)co1` [Compound 3, N-{3-[(6R)-8-Amino-2,6-dimethyl-3-oxo-2,3,5,6-tetrahydroimidazo[1,5-a]pyrazin-6-yl]-4-fluorophenyl}-2-methyl-1,3-oxazole-4-carboxamide], the IC50 in assay [1] was 9.55 nM; in assay [2], 52.5 nM; in assay [3] it was 6.61 nM.
The like results for `Cn1cc2n(c1=O)C[C@@](C)(c1cc(NC(=O)c3ccc(Cl)cn3)ccc1F)N=C2N` [Compound 4, N-{3-[(6R)-8-amino-2,6-dimethyl-3-oxo-5H-imidazo[1,5-a]pyrazin-6-yl]-4-fluoro-phenyl}-5-chloro-pyridine-2-carboxamide] were, in that order, 3.98 nM, 6.03 nM and 4.37 nM.
